Experimental findings from US9150555B2, “Amide derivative and use thereof” (Mitsubishi Tanabe Pharma Corporation, priority 2010, dated 2015) are described below.

The IC50 is the concentration needed to halve the response being measured. By inhibition is commonly meant the percentage by which the read-out fell short of the control.

Like-named read-outs stand apart in the source and are kept apart here.

Data set [1] concerns IL-17 production of mouse spleen cells stimulated by rm-IL-23. Put plainly: Production of IL-17 induced when mouse spleen cells were stimulated by recombinant mouse interleukin-23 (rm-IL-23). It counts as cell-based. The settings on record: inhibition of IL-17 production; DBA/1J mouse spleen cells, rm-IL-23 1 nmol/L, 72 hours, ELISA. In a few lines: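 Spleen cells from 6-7 week-old male DBA/1J mice, 2×10^5 cells/well in 10% FCS RPMI1640, cultured 72 h at 37° C with compound (1 to 1,000 nmol/L) plus 1 nmol/L rm-IL-23. IL-17 in supernatant by ELISA; viability by WST-8 absorbance at 450 nm; IC50 by linear regression of inhibition rate.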
(In an ELISA, binding on a coated surface is turned into a signal by an enzyme label.)

For the next data set, the target named is hERG (Homo sapiens, UniProt Q12809). Description: in vitro. The settings on record: pH 7.4, hERG inhibition rate (%) (1 μM). For orientation: The hERG channel carries a current that helps repolarise heart muscle cells.
Chain of hERG (Q12809 whole entry): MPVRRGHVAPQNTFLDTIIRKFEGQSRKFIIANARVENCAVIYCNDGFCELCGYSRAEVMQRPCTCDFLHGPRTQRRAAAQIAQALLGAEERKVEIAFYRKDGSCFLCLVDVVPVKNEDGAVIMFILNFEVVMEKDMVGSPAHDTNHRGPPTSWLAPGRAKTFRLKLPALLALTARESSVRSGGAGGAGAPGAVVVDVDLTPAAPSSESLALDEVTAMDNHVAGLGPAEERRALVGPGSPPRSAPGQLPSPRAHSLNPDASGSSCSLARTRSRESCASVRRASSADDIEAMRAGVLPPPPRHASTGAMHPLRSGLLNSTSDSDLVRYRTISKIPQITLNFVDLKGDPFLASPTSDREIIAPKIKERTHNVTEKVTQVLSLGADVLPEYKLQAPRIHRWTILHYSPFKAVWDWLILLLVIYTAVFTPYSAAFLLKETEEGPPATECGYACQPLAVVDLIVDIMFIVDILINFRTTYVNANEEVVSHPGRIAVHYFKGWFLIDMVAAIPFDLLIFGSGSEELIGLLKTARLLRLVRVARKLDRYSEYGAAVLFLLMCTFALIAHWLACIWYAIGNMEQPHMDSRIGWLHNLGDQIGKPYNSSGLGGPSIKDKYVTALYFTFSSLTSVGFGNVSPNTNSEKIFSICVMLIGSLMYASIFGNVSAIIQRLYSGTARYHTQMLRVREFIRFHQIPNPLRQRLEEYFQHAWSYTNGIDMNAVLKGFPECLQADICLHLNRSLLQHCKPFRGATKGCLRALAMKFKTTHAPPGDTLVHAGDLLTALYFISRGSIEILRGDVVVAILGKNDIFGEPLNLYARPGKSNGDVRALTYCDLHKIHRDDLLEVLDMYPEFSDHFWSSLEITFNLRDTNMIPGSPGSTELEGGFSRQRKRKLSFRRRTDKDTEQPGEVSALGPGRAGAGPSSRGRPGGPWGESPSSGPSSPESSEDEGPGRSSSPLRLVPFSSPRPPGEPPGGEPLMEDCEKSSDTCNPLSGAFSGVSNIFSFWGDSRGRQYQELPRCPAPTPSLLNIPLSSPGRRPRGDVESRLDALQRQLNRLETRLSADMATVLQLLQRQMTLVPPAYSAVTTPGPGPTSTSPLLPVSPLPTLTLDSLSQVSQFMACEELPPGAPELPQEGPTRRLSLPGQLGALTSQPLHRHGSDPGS
Data set [2] concerns the target T1, hERG current in hERG-expressed HEK 293 cells (Homo sapiens, UniProt Q12809). Description: Effects on hERG current (whole-cell clamping). The settings on record: 1 μM; tail peak current; hERG-expressed HEK 293 cells.
Data set [3] addresses T1, hERG current in hERG-expressed HEK 293 cells.

T1 sequence (Q12809 whole entry): as above

Consider `Cc1c(C(=O)Nc2ccc(C3(C#N)CCN([C@H]4CCO[C@H]4C)CC3)nc2)cnn1-c1ccc(C(F)(F)F)cc1` (relative stereo) [Example D11, cis-N-{6-[4-Cyano-1-(2-methyltetrahydrofuran-3-yl)piperidin-4-yl]pyridin-3-yl}-5-methyl-1-[4-(trifluoromethyl)phenyl]-1H-pyrazole-4-carboxamide], for which the IC50 in data set [1] turned out to be 53.4 nM. Also, the inhibition at 1 µM against hERG turned out to be 21%.
Consider `Cc1ccc(-n2ncc(C(=O)Nc3ccc(C4(C#N)CCC(N5CCOCC5)CC4)nc3)c2C)cc1.Cl` (stereo not drawn) [Example D2, N-{6-[r-1-Cyano-c-4-(morpholin-4-yl)cyclohexyl]pyridin-3-yl}-5-methyl-1-(4-methylphenyl)-1H-pyrazole-4-carboxamide hydrochloride], for which, in data set [1], the IC50 is 193 nM. In addition, the “hERG inhibition rate (%) (1 μM)” value in data set [2] worked out at 43.4%.
For the compound `COCOC1CCC(C#N)(c2ccc(NC(=O)c3cnn(-c4ccc(C)cc4)c3C)cn2)CC1` (stereo not drawn) [Example D3, N-{6-[r-1-Cyano-c-4-(methoxymethoxy)cyclohexyl]pyridin-3-yl}-5-methyl-1-(4-methylphenyl)-1H-pyrazole-4-carboxamide], the IC50 in data set [1] came out at 182 nM. In addition, the “hERG inhibition rate (%) (1 μM)” value in data set [3] came out at 7.2%.
As to `Cc1c(C(=O)Nc2ccc(C3(C#N)CCN(CC(C)(C)O)CC3)nc2)cnn1-c1ccc(C(F)(F)F)cn1` [Example D9, N-{6-[4-Cyano-1-(2-hydroxy-2-methylpropyl)piperidin-4-yl]pyridin-3-yl}-5-methyl-1-[5-(trifluoromethyl)pyridin-2-yl]-1H-pyrazole-4-carboxamide], the half-maximal inhibitory concentration (IC50) in data set [1] is 76.7 nM. The compound further gave an inhibition at 1 µM on hERG of 42.1%.
In the same order, the values of `Cc1c(C(=O)Nc2ccc(C3(C#N)CCN(CC(C)(C)O)CC3)nc2)cnn1-c1ccc(C2CC2)cn1` [Example D12, N-{6-[4-Cyano-1-(2-hydroxy-2-methylpropyl)piperidin-4-yl]pyridin-3-yl}-1-(5-cyclopropylpyridin-2-yl)-5-methyl-1H-pyrazole-4-carboxamide] are 117 nM and 29.2%.
In the same order, the values of `Cc1c(C(=O)Nc2ccc(C3(C#N)CCN(CC(C)(C)O)CC3)nc2)cnn1-c1ccc(Cl)cc1` [Example D116] are 129 nM and 41.2%.
For `Cc1c(C(=O)Nc2ccc(C3(C#N)CCN(CC(C)(C)O)CC3)nc2)cnn1-c1ccc(C(F)(F)F)cc1` [Example D117] the same measures were 57 nM and 35.6%.
With `Cc1cc(NC(=O)c2cnn(-c3ccc(C(F)(F)F)cn3)c2C)cnc1C1=CC[C@@H](N2CCOCC2)CC1` [Example D303], the IC50 in data set [1] came to 48 nM. In addition, the “hERG inhibition rate (%) (1 μM)” value in data set [2] worked out at 22.7%.
As to `Cc1c(C(=O)Nc2ccc(C3(C#N)CCN(C4CCOCC4)CC3)nc2)cnn1-c1ccc(C(F)(F)F)cc1` [Example E7], the IC50 in data set [1] was 349 nM. Also, the inhibition at 1 µM on hERG amounted to 21.1%.
